The values below are quoted from earlier work in paper PMC11255275, “Structural insights into the triple agonism at GLP-1R, GIPR and GCGR manifested by retatrutide” (Cell Discovery, 2024).

One series relates to GLP-1R. Particulars: among GLP-1R, GIPR and GCGR; general statement in introduction; cited from earlier work. The source says: (§1) The most successful treatments currently available include glucagon-like peptide-1 (GLP-1) receptor agonists (GLP-1RAs), exemplified by semaglutide (approved in 2017, $19.9 billion sales in 2023)[3] and tirzepatide (approved in 2022, $5.3 billion sales in 2023)[4].

The test system of the next series is GIPR. Particulars: in addition to GLP-1R; cited from earlier work.
Description: as §1

Take semaglutide: the receptor activation entry with GLP-1R was “solely activates GLP-1R”. Turning to tirzepatide, in the series on GIPR, the receptor activation entry is given as “also activates glucose-dependent insulinotropic polypeptide (GIP) receptor (GIPR)”.
